Assay results published in PMC4702177, “Discovering new mTOR inhibitors for cancer treatment through virtual screening methods and in vitro assays” (Scientific Reports, 2016).

How the values were obtained:
HeLa cells = test: Quantification of apoptotic cells (Hoechst 33342 staining); type: cell-based, human; conditions: 24 hours (control 1.9%)
Protocol: (§1) To elucidate the mechanisms of cell death induced by 17, we analyzed the effect of 17 on nuclear morphology using Hoechst 33342 staining. […] This observation allowed for clear discrimination of treated cells from untreated non-apoptotic HeLa cells, which have a normal, round, and unpunctuated nucleus. […] The percentage of apoptotic HeLa cells were 6.5% and 7.7% at the concentrations of 2.74 and 5.48 μM, respectively (Fig. 6d). To further confirm the nuclear morphology observation, Western blotting was used to detect caspase-3 activation and PARP cleavage, two biochemical markers of apoptosis. […] The induction of apoptosis is positively correlated with the concentration of compound 17.
[…] Then, the cells were collected, washed with PBS, and fixed in 4% paraformaldehyde for 15 min at room temperature. Finally, the samples were stained with Hoechst33342 (10 μg/mL) for 5 min. Stained nuclei were photographed under a fluorescence microscope with a 20× objective (Nikon).

[1] = system: caspase-3 activation and PARP cleavage in HeLa cells; test: Western blot of apoptosis markers; type: cell-based, human; conditions: 24 h, compared with control
Protocol: as §1
[…] Samples were prepared by lysing PBS-washed cells with RIPA buffer (Beyotime, Haimen, China) consisting of 1% Nonidet P-40, 0.5% sodium deoxycholate, 0.1% SDS, and 50 mM Tris-HCl, pH 7.4, supplemented with NaF, NaVO4, EDTA and a protease inhibitor cocktail (Roche). Proteins were subjected to SDS-PAGE gel electrophoresis and transferred onto a polyvinylidene difluoride membrane (Hybond-P; GE Healthcare Life Sciences, Piscataway, NJ). […] The densitometry of each band was quantified by FluorChem 8000 (AlphaInnotech, San Leandro, CA).

With Nc1nn2c(nc(N)c3c(N)n[nH]c32)c1/N=N/c1ccccc1 [Compound 17] the “% of apoptotic cells” value (HeLa cells; 2.74 μM) was 6.5%, the “% of apoptotic cells” value (HeLa cells; 5.48 μM) was 7.7% and the “levels of cleaved (activated) caspase-3 and PARP” value [1] was “markedly increased”.
